From patent US20100148126A1 (priority 2008, published 2010)

These compounds were tested against wild-type αHL protein pore (Staphylococcus aureus, UniProt P09616).
Type: binding

Sequence of wild-type αHL protein pore (P09616 27-319 limits assumed): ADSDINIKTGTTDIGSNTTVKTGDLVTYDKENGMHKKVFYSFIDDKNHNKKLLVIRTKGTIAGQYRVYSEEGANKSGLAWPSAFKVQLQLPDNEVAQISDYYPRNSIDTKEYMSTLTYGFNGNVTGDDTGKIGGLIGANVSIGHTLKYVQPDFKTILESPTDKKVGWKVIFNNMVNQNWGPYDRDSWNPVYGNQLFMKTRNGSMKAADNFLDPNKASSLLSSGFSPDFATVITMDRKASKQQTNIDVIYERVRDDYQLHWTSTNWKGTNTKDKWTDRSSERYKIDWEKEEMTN

`Cl.ClCCN1CCOCC1` [CM, 4-(2-chloroethyl)morpholine hydrochloride] and `CCNCC.Cl` [DEA, diethylammonium chloride] are within error of each other in “mean amplitude of analyte-boromycin complex events” value (“mean amplitude” for short): 33.5±1.2 pA for the first, 33.6±0.8 pA for the second.

`CCN(CC)CC.Cl` [TEA, triethylammonium chloride] and KCl [K^+] are within error of each other in “mean amplitude” value: 33.7±0.4 pA for the first, 33.6±0.3 pA for the second.

In the case of NH4Cl [NH4^+], the “mean amplitude” value is reported as 33.7±0.2 pA.

Compared with `Cl.ClCCN1CCOCC1` [CM, 4-(2-chloroethyl)morpholine hydrochloride], `CCNCC.Cl` [DEA, diethylammonium chloride] is higher in “τoff (mean dwell time) of analyte-boromycin complex” value (shortened to “τoff (mean dwell time)”): 34.7 ± 0.6 ms for the first, 40.5 ± 0.5 ms for the second.

Going from `CCN(CC)CC.Cl` [TEA, triethylammonium chloride] to KCl [K^+], the “τoff (mean dwell time)” value falls from 60.6 ± 1.9 ms to 52.1 ± 0.3 ms.

With NH4Cl [NH4^+] the “τoff (mean dwell time)” value was 75.0 ± 1.6 ms.

boromycin was tested, and the “increase of event mean dwell time in BMIM-Cl versus NaCl” value was 2.6 fold.
